Some results are limits rather than exact numbers.

The nature of data set [1]: in vitro. The settings on record: human, liver microsomes.
Description: Half life in human liver microsomes at 0.5 uM in presence of NADPH by LC-MS/MS method
Data set [2] in a line: in vitro. The settings on record: rat, liver microsomes.
Description: Half life in rat liver microsomes at 0.5 uM in presence of NADPH by LC-MS/MS method
A short description of data set [3]: in vivo. The settings on record: Sprague-Dawley, rat, po, 5 mg/kg.
A short description of data set [4]: in vivo. To be noted: Sprague-Dawley, rat, plasma, po, 5 mg/kg.
Description: Plasma concentration in Sprague-Dawley rat at 5 mg/kg, po via gavage after 24 hrs by LC-MS/MS analysis
Data set [5] is described as follows: in vitro. The settings on record: mouse, liver microsomes.
Description: Half life in mouse liver microsomes at 0.5 uM in presence of NADPH by LC-MS/MS method
Data set [6] in a line: cells. The settings on record: Human immunodeficiency virus 1, subtype B NL4-3, MT2.
Data set [7] in a line: cells. The settings on record: Human immunodeficiency virus 1, subtype B NL4-3, MT2. This is another data set of the same source.
Data set [8] relates to Rattus norvegicus. Description: Toxicity in Sprague-Dawley rat at 5 to 124 mg/kg, po via gavage up to 24 hrs by LC-MS/MS analysis. The settings on record: in vivo. Format: organism-based.
A short description of data set [9]: in vitro. The settings on record: human, MT2 cells.
Description: Cytotoxicity against human MT2 cells
A short description of data set [10]: in vivo. The settings on record: Sprague-Dawley, rat, po, 5 mg/kg. This is another data set of the same source.
A short description of data set [11]: Cmax in Sprague-Dawley rat at 11.8 mg/kg, po via gavage by LC-MS/MS analysis. Further details: dose 11.8 mg/kg, route oral. The class given is ADME, organism-based. The settings on record: in vivo.
For data set [12], the system named is Rattus norvegicus. Description: Dose normalized AUC in Sprague-Dawley rat at 35 mg/kg, po via gavage up to 24 hrs by LC-MS/MS analysis. The class given is ADME, organism-based. The settings on record: in vivo.
A short description of data set [13]: Oral bioavailability in Sprague-Dawley rat at 124 mg/kg via gavage up to 24 hrs by LC-MS/MS analysis. Format: ADME, organism-based. The settings on record: in vivo.
Data set [14] in a line: Dose normalized plasma concentration in Sprague-Dawley rat at 35 mg/kg, po via gavage after 24 hrs by LC-MS/MS analysis. The class given is ADME, organism-based. To be noted: in vivo.
Data set [15] can be described thus: Oral bioavailability in Sprague-Dawley rat at 35 mg/kg via gavage up to 24 hrs by LC-MS/MS analysis. The settings on record: in vivo. The class given is ADME, organism-based.
Data set [16] can be described thus: Tmax in Sprague-Dawley rat at 35 mg/kg, po via gavage by LC-MS/MS analysis. The class given is ADME, organism-based. The settings on record: in vivo.
A short description of data set [17]: Dose normalized plasma concentration in Sprague-Dawley rat at 5 mg/kg, po via gavage after 24 hrs by LC-MS/MS analysis. The class given is ADME, organism-based. To be noted: in vivo.
A short description of data set [18]: Plasma concentration in Sprague-Dawley rat at 11.8 mg/kg, po via gavage after 24 hrs by LC-MS/MS analysis. Format: ADME, organism-based.
Data set [19] concerns Rattus norvegicus. Description: Extrapolated AUC in Sprague-Dawley rat at 5 mg/kg, po via gavage up to 24 hrs by LC-MS/MS analysis. To be noted: in vivo. Format: ADME, organism-based.
Data set [20] deals with Rattus norvegicus. Description: Extrapolated AUC in Sprague-Dawley rat at 35 mg/kg, po via gavage up to 24 hrs by LC-MS/MS analysis. The class given is ADME, organism-based. To be noted: in vivo.
Data set [21] is described as follows: AUClast in Sprague-Dawley rat at 124 mg/kg, po via gavage up to 24 hrs by LC-MS/MS analysis. The settings on record: in vivo. Also on record: time < 24 hr, dose 124 mg/kg, route oral. Format: ADME, organism-based.
Data set [22] concerns Rattus norvegicus. Description: Dose normalized AUC in Sprague-Dawley rat at 124 mg/kg, po via gavage up to 24 hrs by LC-MS/MS analysis. Format: ADME, organism-based. The settings on record: in vivo.
Data set [23] can be described thus: Total AUC in Sprague-Dawley rat at 35 mg/kg, po via gavage up to 24 hrs by LC-MS/MS analysis. The class given is ADME, organism-based. Further details: dose 35 mg/kg, time AUCmax, route oral. The settings on record: in vivo.
Data set [24] can be described thus: Tmax in Sprague-Dawley rat at 124 mg/kg, po via gavage by LC-MS/MS analysis. The class given is ADME, organism-based. To be noted: in vivo.
A short description of data set [25]: Total AUC in Sprague-Dawley rat at 5 mg/kg, po via gavage up to 24 hrs by LC-MS/MS analysis. The class given is ADME, organism-based. Further details: dose 5 mg/kg, time AUCmax, route oral. To be noted: in vivo.
A short description of data set [26]: Total AUC in Sprague-Dawley rat at 124 mg/kg, po via gavage up to 24 hrs by LC-MS/MS analysis. The class given is ADME, organism-based. Further details: dose 124 mg/kg, time AUCmax, route oral. The settings on record: in vivo.
Data set [27] deals with Rattus norvegicus. Briefly: Extrapolated AUC in Sprague-Dawley rat at 11.8 mg/kg, po via gavage up to 24 hrs by LC-MS/MS analysis. The class given is ADME, organism-based. The settings on record: in vivo.
A short description of data set [28]: Tmax in Sprague-Dawley rat at 5 mg/kg, po via gavage by LC-MS/MS analysis. The class given is ADME, organism-based. The settings on record: in vivo.
Data set [29] in a line: Cmax in Sprague-Dawley rat at 124 mg/kg, po via gavage by LC-MS/MS analysis. Format: ADME, organism-based. Also on record: dose 124 mg/kg, route oral. To be noted: in vivo.
Data set [30] relates to Rattus norvegicus. Briefly: Dose normalized AUC in Sprague-Dawley rat at 11.8 mg/kg, po via gavage up to 24 hrs by LC-MS/MS analysis. Format: ADME, organism-based. The settings on record: in vivo.
A short description of data set [31]: Cmax in Sprague-Dawley rat at 5 mg/kg, po via gavage by LC-MS/MS analysis. The settings on record: in vivo. The class given is ADME, organism-based. Further details: dose 5 mg/kg, route oral.
A short description of data set [32]: Total AUC in Sprague-Dawley rat at 11.8 mg/kg, po via gavage up to 24 hrs by LC-MS/MS analysis. The class given is ADME, organism-based. Further details: dose 11.8 mg/kg, time AUCmax, route oral. To be noted: in vivo.
The nature of data set [33]: Tmax in Sprague-Dawley rat at 11.8 mg/kg, po via gavage by LC-MS/MS analysis. The class given is ADME, organism-based. To be noted: in vivo.
The nature of data set [34]: Dose normalized plasma concentration in Sprague-Dawley rat at 124 mg/kg, po via gavage after 24 hrs by LC-MS/MS analysis. Format: ADME, organism-based. The settings on record: in vivo.
The nature of data set [35]: AUClast in Sprague-Dawley rat at 11.8 mg/kg, po via gavage up to 24 hrs by LC-MS/MS analysis. Also on record: dose 11.8 mg/kg, time < 24 hr, route oral. Format: ADME, organism-based. To be noted: in vivo.
Data set [36] is described as follows: Plasma concentration in Sprague-Dawley rat at 124 mg/kg, po via gavage after 24 hrs by LC-MS/MS analysis. Format: ADME, organism-based.
Data set [37] is described as follows: AUClast in Sprague-Dawley rat at 5 mg/kg, po via gavage up to 24 hrs by LC-MS/MS analysis. Format: ADME, organism-based. Also on record: time < 24 hr, dose 5 mg/kg, route oral. To be noted: in vivo.
Data set [38] can be described thus: Oral bioavailability in Sprague-Dawley rat at 11.8 mg/kg via gavage up to 24 hrs by LC-MS/MS analysis. Format: ADME, organism-based. The settings on record: in vivo.
For data set [39], the system named is Rattus norvegicus. Briefly: Dose normalized AUC in Sprague-Dawley rat at 5 mg/kg, po via gavage up to 24 hrs by LC-MS/MS analysis. The settings on record: in vivo. The class given is ADME, organism-based.
A short description of data set [40]: Dose normalized plasma concentration in Sprague-Dawley rat at 11.8 mg/kg, po via gavage after 24 hrs by LC-MS/MS analysis. The class given is ADME, organism-based. To be noted: in vivo.
Data set [41] deals with Rattus norvegicus. Description: Extrapolated AUC in Sprague-Dawley rat at 124 mg/kg, po via gavage up to 24 hrs by LC-MS/MS analysis. Format: ADME, organism-based. To be noted: in vivo.
Data set [42] can be described thus: Oral bioavailability in Sprague-Dawley rat at 5 mg/kg via gavage up to 24 hrs by LC-MS/MS analysis. The class given is ADME, organism-based. The settings on record: in vivo.
Data set [43] can be described thus: Plasma concentration in Sprague-Dawley rat at 35 mg/kg, po via gavage after 24 hrs by LC-MS/MS analysis. Format: ADME, organism-based.
Data set [44] can be described thus: AUClast in Sprague-Dawley rat at 35 mg/kg, po via gavage up to 24 hrs by LC-MS/MS analysis. Format: ADME, organism-based. Further details: time < 24 hr, dose 35 mg/kg, route oral. To be noted: in vivo.
Data set [45] in a line: Cmax in Sprague-Dawley rat at 35 mg/kg, po via gavage by LC-MS/MS analysis. To be noted: in vivo. Format: ADME, organism-based. Also on record: dose 35 mg/kg, route oral.
Data set [46] is described as follows: Dissociation constant, pKa of the compound. Format: physicochemical.

On to `C=C(C)[C@@H]1CC[C@]2(C(=O)NCCN(C)C)CC[C@]3(C)[C@H](CC[C@@H]4[C@@]5(C)CC=C(c6ccc(C(=O)O)cc6)C(C)(C)[C@@H]5CC[C@]43C)[C@@H]12`, for which the half-life at 0.5 µM in “in vitro [1]”, in the data set “in vitro [2]” and in “in vitro [5]” was over 2 h in each case. Besides, in the data set “in vivo [3]”, the AUC(0-t) at 24 h is 3.81 µM·h. For the same compound, in the data set “in vivo [4]”, the concentration at 24 h came to 27 nM. In “cells [6]”, this compound displayed an EC50 of 201 nM. Further, in the data set “cells [7]”, the IC50 is 31 nM.
Regarding `C=C(C)[C@@H]1CC[C@]2(CNCCCN3CCS(=O)(=O)CC3)CC[C@]3(C)[C@H](CC[C@@H]4[C@@]5(C)CC=C(c6ccc(C(=O)O)cc6)C(C)(C)[C@@H]5CC[C@]43C)[C@@H]12`, in the data set on Rattus norvegicus [8], the Activity entry was “Non-Toxic”. This compound also displayed an AUC(0-t) at 24 h in the data set “in vivo [3]” of 2.81 µM·h. Besides, in the data set “in vitro [9]”, the CC50 came out at 3500 nM. In addition, in “cells [6]”, the EC50 turned out to be 20 nM. In the data set “in vivo [10]”, this compound gave an AUC(0-t) at 6 h of 1.71 µM·h.
Turning to `C=C(C)[C@@H]1CC[C@]2(CNCCCN3CCS(=O)(=O)CC3)CC[C@]3(C)[C@H](CC[C@@H]4[C@@]5(C)CC=C(c6ccc(C(=O)O)cc6)C(C)(C)[C@@H]5CC[C@]43C)[C@@H]12.Cl`, the Cmax in data set [11] was 285 nM; in data set [29], 697 nM; in data set [31] it was 232 nM; in data set [45] it was 451 nM. The AUC/dose came out at 378 µM·h in the data set on Rattus norvegicus [12], 235 µM·h with Rattus norvegicus [22], 461 µM·h in the data set on Rattus norvegicus [30] and 650 µM·h with Rattus norvegicus [39]. For the same compound, the bioavailability in data set [13] was determined as 4%; in data set [15], 7%; in [38], 8%; in data set [42] it was 12%. Besides, the Cp/dose in [14] is given as 6.7 nM; in [17], 6.8 nM; in [34], 5.1 nM; in data set [40], 7.7 nM. Moreover, the Tmax in [16] was determined as 5.3 h; in [24], 17.3 h; in data set [28], 6.7 h; in data set [33] it was 4.7 h. The concentration at 24 h was found to be 91 nM in [18], 635 nM in data set [36], 34 nM in “in vivo [4]” and 234 nM in data set [43]. In addition, the “%AUCextra” value is on record as 8% with Rattus norvegicus [19], 14% in the data set on Rattus norvegicus [20], 2% in the data set on Rattus norvegicus [27] and 17% in the data set with Rattus norvegicus [41]. Also, the AUC(0-t) at 24 h in data set [21] worked out at 23.2 µM·h; in [35], 5.31 µM·h; in data set [37], 2.99 µM·h; in [44] it was 11.4 µM·h. Besides, the AUC at 24 h in [23] turned out to be 13.2 µM·h; in data set [25], 3.25 µM·h; in data set [26], 29.1 µM·h; in data set [32] it was 5.44 µM·h.
Consider `C=C(C)[C@@H]1CC[C@]2(CNCCCN3CCOCC3)CC[C@]3(C)[C@H](CC[C@@H]4[C@@]5(C)CC=C(c6ccc(C(=O)O)cc6)C(C)(C)[C@@H]5CC[C@]43C)[C@@H]12`, for which the pKa in [46] came to 8.2. The compound also had a CC50 in the data set “in vitro [9]” of 2200 nM. For the same compound, the AUC(0-t) at 6 h in “in vivo [10]” was determined as 0.045 µM·h. In the data set “cells [7]”, this compound yielded an IC50 of 28 nM.
In turn, `C=C(C)[C@@H]1CC[C@]2(CNCCN3CCC(F)(F)CC3)CC[C@]3(C)[C@H](CC[C@@H]4[C@@]5(C)CC=C(c6ccc(C(=O)O)cc6)C(C)(C)[C@@H]5CC[C@]43C)[C@@H]12` displayed a pKa in data set [46] of 8.6. The half-life at 0.5 µM in the data set “in vitro [1]”, in the data set “in vitro [2]” and in “in vitro [5]” was over 2 h each time. The compound also returned a CC50 in “in vitro [9]” of 8500 nM. The compound further registered an IC50 in “cells [7]” of 57 nM.

(Values after ChEMBL document CHEMBL4219213, “The design, synthesis and structure-activity relationships associated with C28 amine-based betulinic acid derivatives as inhibitors of HIV-1 maturation” (Bioorg Med Chem Lett, 2018).)
